For data set [1], the species on record is Homo sapiens. The data set can be described thus: Selectivity ratio of IC50 for human erythrocytes AChE to IC50 for human serum BuChE.
Data set [2] deals with Amyloid-beta precursor protein (Homo sapiens) (UniProt P05067). The data set can be described thus: Inhibition of amyloid beta (1 to 42) (unknown origin) self-aggregation at 25 uM incubated for 30 mins measured every 5 mins for 14 hrs by thioflavin T fluorescence assay relative to control.
Data set [3] can be described thus: Cytotoxicity against human SH-SY5Y cells assessed as cell viability at 25 uM after 24 hrs by MTT assay relative to control. It is filed as cell-based. As to conditions: read-out: Activity.
Data set [4] addresses T1, Cholinesterase (Homo sapiens, UniProt P06276). The experiment in a line: Inhibition of human BuChE.
The target in data set [5] is T2, Acetylcholinesterase (Bos taurus, UniProt P23795).
T2 sequence (P23795 whole entry): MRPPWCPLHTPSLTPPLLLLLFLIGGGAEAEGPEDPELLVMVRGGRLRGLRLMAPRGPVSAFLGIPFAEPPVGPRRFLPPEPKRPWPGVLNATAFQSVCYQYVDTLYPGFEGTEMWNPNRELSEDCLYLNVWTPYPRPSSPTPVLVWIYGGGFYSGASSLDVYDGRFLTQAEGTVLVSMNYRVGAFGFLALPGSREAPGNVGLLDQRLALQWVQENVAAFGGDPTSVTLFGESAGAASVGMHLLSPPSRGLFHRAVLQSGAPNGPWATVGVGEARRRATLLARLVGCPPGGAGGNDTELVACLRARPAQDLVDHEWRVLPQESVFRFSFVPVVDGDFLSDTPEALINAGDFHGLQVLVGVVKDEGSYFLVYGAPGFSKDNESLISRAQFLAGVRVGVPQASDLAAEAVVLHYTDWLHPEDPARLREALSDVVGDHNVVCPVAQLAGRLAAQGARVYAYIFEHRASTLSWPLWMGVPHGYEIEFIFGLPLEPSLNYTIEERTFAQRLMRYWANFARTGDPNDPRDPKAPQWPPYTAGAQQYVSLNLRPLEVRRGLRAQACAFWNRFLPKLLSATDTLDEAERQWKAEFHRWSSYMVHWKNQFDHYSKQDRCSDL
The data set can be described thus: Inhibition of fetal bovine serum AChE using acetylthiocholine iodide as substrate.

Data set [6] deals with T3, Cholinesterase (Equus caballus, UniProt P81908). The experiment in a line: Inhibition of equine serum BChE using butyrylthiocholine iodide as substrate.
Data set [7] deals with Rattus norvegicus. The experiment in a line: In-vivo inhibition of BuChE in Harlan-Wistar rat brain assessed as increase in acetylcholine level at 2.5 mg/kg, ip by microdialysis method relative to control. It is filed as functional.
Data set [8] deals with Rattus norvegicus. The experiment in a line: In-vivo inhibition of BuChE in Harlan-Wistar rat brain assessed as increase in acetylcholine level at 1.25 mg/kg, ip by microdialysis method relative to control. It counts as functional.
Data set [9] in a line: Selectivity ratio of IC50 for electric eel AChE to IC50 for equine serum BChE.
Data set [10] addresses T1, Cholinesterase. The experiment in a line: Inhibition of BuChE (unknown origin).
Data set [11] deals with T4, Acetylcholinesterase (Electrophorus electricus, UniProt O42275). The experiment in a line: Inhibition of electric eel AChE using acetylthiocholine iodide as substrate measured at 12 secs interval for 10 mins by Ellman's method. (In general: DTNB colorimetry detects thiols as they appear.)
Data set [12] concerns the target T3, Cholinesterase. The data set can be described thus: Inhibition of equine serum BChE using butyrylthiocholine iodide as substrate measured at 12 secs interval for 10 mins by Ellman's method.
Data set [13] concerns the target T3, Cholinesterase. The experiment in a line: Inhibition of equine serum BuChE using s-butyrylthiocholine iodide as substrate pretreated for 6 mins followed by substrate addition measured at 60 secs interval for 180 secs by Ellman's method.
For data set [14], the target named is T4, Acetylcholinesterase. The experiment in a line: Inhibition of electric eel AChE using acetylthiocholine iodide as substrate pretreated for 6 mins followed by substrate measured at 60 secs interval for 180 secs by Ellman's method.
For data set [15], the target named is Acetylcholinesterase (Electrophorus electricus) (UniProt O42275). The data set can be described thus: Inhibition of electric eel AChE-induced human amyloid beta (1 to 40 residues) at 100 uM by thiofalvin-T fluorescence assay relative to control.
Data set [16] concerns the target T3, Cholinesterase. The data set can be described thus: Inhibition of equine serum BuChE using butyrylthiocholine iodide as substrate pretreated for 10 mins followed by substrate addition by DTNB reagent based spectrophotometric method.
Data set [17] addresses T1, Cholinesterase. The data set can be described thus: Inhibition of human plasma BuChE using butyrylthiocholine iodine as substrate pretreated for 10 mins followed by substrate addition measured for 5 mins by Ellman's method.
The target in data set [18] is T1, Cholinesterase. The experiment in a line: Inhibition of human […] BuChE using s-butyrylthiocholine as substrate pretreated for 30 mins followed by substrate addition after 25 mins by spectrophotometric method.
Data set [19] addresses Acetylcholinesterase (Homo sapiens, UniProt P22303). The data set can be described thus: Inhibition of human […] AChE using acetyl-(beta-methyl)thiocholine as substrate pretreated for 30 mins followed by substrate addition after 25 mins by spectrophotometric method.
The target in data set [20] is T1, Cholinesterase. The experiment in a line: Inhibition of human serum BuChE using butyrylthiocholine iodide as substrate pretreated for 20 mins followed by substrate addition by DTNB reagent based spectrophotometric method.
The target in data set [21] is Amyloid-beta precursor protein (Homo sapiens) (UniProt P05067). The experiment in a line: Inhibition of HFIP-pretreated amyloid beta (1 to 42) (unknown origin) self-induced aggregation at 50 uM after 24 hrs by thioflavin-T fluorescence assay relative to control.
A short description of data set [22]: Cytotoxicity against human T67 cells assessed as cell viability at 50 uM after 24 hrs by resazurin dye based spectrofluorimetric method relative to control. As to conditions: read-out: Activity.
Data set [23] in a line: Cytotoxicity against human T67 cells assessed as cell viability at 10 uM after 24 hrs by resazurin dye based spectrofluorimetric method relative to control. To be noted: read-out: Activity. (In general: The colour change of resazurin is a common sign of viable cells or microbes.)

In general, inhibition refers to the percentage by which the read-out fell short of the control. One may read the pIC50 as the IC50 on a negative log10 scale, so that one unit is a factor of ten. Broadly, the inhibition in vivo is the change of the read-out against control, counted positive when it falls.

pIC50: −log10 of the molar value.

T1 sequence (P06276 whole entry): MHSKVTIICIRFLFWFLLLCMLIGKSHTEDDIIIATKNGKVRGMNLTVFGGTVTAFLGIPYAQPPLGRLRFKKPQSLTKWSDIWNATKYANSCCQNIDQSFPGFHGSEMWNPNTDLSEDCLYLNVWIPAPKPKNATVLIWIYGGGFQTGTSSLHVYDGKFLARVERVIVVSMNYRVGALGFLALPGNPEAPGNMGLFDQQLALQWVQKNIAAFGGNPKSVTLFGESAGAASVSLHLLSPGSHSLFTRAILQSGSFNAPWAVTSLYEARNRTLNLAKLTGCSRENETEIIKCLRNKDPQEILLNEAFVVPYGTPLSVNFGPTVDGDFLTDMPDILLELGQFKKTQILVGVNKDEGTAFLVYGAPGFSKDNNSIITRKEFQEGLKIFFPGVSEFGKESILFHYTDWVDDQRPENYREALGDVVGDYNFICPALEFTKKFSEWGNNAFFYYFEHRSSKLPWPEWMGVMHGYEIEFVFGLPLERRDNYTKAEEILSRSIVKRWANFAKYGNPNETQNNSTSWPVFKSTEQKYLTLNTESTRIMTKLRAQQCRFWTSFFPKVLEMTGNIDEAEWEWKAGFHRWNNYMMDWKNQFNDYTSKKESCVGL
T4 sequence (O42275 whole entry): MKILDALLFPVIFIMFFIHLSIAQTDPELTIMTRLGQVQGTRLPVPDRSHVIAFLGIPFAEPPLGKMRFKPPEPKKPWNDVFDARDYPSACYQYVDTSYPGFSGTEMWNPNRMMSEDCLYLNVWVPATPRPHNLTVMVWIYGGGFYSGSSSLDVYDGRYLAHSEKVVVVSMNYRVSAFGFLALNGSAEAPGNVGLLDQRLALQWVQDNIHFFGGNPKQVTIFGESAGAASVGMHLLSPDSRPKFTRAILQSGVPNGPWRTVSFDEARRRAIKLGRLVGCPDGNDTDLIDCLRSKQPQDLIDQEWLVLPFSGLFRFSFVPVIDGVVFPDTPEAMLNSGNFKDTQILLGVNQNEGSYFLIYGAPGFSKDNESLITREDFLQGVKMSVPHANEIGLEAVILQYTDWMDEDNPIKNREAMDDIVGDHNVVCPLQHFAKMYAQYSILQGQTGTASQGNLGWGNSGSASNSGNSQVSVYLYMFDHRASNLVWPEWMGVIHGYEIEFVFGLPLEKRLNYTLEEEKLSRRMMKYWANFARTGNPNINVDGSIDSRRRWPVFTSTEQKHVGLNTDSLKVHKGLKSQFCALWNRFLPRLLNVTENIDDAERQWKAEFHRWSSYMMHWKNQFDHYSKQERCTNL
T3 sequence (P81908 whole entry): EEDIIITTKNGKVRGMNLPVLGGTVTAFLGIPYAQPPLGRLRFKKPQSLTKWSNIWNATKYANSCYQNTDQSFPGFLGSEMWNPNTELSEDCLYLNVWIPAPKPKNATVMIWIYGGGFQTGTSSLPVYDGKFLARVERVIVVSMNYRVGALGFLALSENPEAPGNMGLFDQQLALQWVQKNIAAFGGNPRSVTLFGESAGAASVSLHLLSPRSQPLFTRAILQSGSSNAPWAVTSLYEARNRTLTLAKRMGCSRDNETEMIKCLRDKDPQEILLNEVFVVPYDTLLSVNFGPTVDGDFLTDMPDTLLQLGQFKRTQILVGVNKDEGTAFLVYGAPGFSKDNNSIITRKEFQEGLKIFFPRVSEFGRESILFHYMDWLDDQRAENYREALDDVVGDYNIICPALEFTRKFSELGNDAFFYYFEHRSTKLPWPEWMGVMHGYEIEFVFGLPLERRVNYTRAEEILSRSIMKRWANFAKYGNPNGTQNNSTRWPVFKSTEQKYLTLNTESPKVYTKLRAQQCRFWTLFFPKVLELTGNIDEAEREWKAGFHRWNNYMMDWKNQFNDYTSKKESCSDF
Amyloid-beta precursor protein (Homo sapiens), sequence (P05067 whole entry): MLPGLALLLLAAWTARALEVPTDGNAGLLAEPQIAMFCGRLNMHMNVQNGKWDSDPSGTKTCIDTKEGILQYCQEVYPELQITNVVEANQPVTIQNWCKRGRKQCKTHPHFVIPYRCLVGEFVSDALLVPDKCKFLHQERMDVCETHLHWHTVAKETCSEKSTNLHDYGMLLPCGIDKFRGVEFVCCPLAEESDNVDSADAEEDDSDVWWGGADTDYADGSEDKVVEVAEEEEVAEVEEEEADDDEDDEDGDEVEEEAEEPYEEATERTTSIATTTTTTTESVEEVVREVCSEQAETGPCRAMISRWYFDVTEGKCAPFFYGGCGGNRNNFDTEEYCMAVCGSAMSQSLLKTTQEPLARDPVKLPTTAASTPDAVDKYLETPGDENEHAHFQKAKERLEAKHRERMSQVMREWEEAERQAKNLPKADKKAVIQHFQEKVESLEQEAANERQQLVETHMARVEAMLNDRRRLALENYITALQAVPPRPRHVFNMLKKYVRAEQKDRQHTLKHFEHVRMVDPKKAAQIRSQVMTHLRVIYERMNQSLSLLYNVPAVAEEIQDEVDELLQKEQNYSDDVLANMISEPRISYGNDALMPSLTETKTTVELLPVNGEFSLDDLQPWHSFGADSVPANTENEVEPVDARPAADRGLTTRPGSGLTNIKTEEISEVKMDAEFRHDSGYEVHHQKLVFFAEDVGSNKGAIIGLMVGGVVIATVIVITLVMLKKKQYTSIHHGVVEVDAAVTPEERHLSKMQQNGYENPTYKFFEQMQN
Acetylcholinesterase (Homo sapiens, UniProt P22303), sequence (P22303 whole entry): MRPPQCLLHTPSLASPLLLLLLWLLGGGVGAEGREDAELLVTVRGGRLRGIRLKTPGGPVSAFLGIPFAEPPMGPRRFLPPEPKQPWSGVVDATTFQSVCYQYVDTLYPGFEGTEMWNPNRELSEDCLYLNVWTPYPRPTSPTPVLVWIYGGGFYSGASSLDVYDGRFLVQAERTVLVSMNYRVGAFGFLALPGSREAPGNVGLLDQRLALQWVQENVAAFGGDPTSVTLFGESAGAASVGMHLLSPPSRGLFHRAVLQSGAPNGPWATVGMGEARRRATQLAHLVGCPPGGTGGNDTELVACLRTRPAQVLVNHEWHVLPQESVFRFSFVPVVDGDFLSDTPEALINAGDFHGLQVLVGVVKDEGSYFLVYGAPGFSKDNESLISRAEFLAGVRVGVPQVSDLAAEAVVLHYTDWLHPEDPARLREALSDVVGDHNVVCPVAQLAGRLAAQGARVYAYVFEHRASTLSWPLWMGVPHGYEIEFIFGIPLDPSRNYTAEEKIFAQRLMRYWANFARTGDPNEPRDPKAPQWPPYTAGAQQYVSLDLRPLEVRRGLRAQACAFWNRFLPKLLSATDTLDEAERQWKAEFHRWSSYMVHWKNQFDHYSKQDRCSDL
Acetylcholinesterase (Electrophorus electricus), sequence (O42275 24-633 limits assumed): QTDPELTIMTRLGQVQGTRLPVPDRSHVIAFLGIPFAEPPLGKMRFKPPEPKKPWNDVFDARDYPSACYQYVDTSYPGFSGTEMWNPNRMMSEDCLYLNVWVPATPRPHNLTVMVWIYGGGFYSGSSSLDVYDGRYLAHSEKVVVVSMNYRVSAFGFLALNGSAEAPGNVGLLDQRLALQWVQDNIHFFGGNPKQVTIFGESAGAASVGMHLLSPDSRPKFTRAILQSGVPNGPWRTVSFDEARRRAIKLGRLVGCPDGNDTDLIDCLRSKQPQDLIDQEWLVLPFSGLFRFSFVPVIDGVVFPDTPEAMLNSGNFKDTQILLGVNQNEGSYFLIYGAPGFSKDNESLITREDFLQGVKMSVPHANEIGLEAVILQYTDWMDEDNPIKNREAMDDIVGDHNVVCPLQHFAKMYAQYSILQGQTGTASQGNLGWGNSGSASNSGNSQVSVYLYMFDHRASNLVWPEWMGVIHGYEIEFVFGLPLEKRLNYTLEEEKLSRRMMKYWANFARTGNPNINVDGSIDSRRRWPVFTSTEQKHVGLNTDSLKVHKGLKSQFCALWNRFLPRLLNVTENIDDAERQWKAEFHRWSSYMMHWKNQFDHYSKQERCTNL

Turning to `c1ccc(CNc2c3c(nc4ccccc24)CCCC3)nc1`, the Ratio IC50 in data set [1] was 957.

Consider `COc1ccc(CNc2c3c(nc4ccccc24)CCCC3)cc1OC`, for which the inhibition in data set [2] was found to be 40%. In data set [1], the Ratio IC50 was determined as 110. For the same compound, the viability at 24 h, 25 µM in data set [3] worked out at 58.9%.

In the case of `COc1ccc(Cn2cc(CNc3c4c(nc5ccccc35)CCCC4)nn2)cc1`, the negative logarithm of the IC50 (pIC50) in data set [4] is 7.26.

`CC(=O)N(CCCNc1c2c(nc3ccccc13)CCCC2)CCNc1c2c(nc3ccccc13)CCCC2`: the pIC50 is 5.82 in data set [5] and 8.70 in [6].

In the case of `CC(C)c1ccc(NC(=O)Oc2ccc3c(c2)[C@]2(C)CCN(CCc4ccccc4)[C@@H]2N3C)cc1`, the inhibition in vivo at 2.5 mg/kg in data set [7] amounted to 290%. Also, the inhibition in vivo at 1.25 mg/kg in data set [8] is 180%.

As to `CC(C(=O)NCCCCCCCCNc1c2c(nc3ccccc13)CCCC2)c1ccc(-c2ccccc2)c(F)c1` (stereo not drawn), in data set [9], the Ratio IC50 came to 16.4.

For `Oc1ccc(-c2cnc3ccccc3n2)cc1`, the negative logarithm of the IC50 (pIC50) in [10] was 5.11.

For the compound `c1ccc2c(NCCCCCCCSc3c4c(nc5ccccc35)CCCC4)c3c(nc2c1)CCCC3`, the pIC50 was 6.47 in [5] and 7.46 in data set [6].

As for `Oc1ccc(/C=C/c2cc(O)cc(O)c2)cc1` [RESVERATROL], the negative-log IC50 (pIC50) in data set [11] is < 3.00; in data set [12], 3.40.

Turning to `O=C(NCCCCCCNc1c2c(nc3ccccc13)CCCCC2)c1cc(O)c2c(c1)C(=O)c1cccc(O)c1C2=O`, the negative-log IC50 (pIC50) in data set [13] was 7.96; in data set [14], 6.89. Moreover, the Ratio IC50 in data set [9] amounted to 11. This compound gave an inhibition in data set [15] of 64.8%.

As to `CCN1CCc2c(c3cc(F)ccc3n2CCC(=O)N2c3ccccc3Sc3ccccc32)C1`, in [16], the negative-log IC50 (pIC50) was 6.41.

On to `COc1ccc(N[C@H]2CCC[C@@H](OC(=O)N(C)C)C2)cc1`, for which the pIC50 in [17] is 3.96.

Consider `CC(C)c1ccc(NC(=O)Oc2ccc3c(c2)[C@]2(C)CCC(C)[C@@H]2C3C)cc1` (stereo partly drawn), for which the pIC50 in [18] was 7.30; in [19] it was 6.12.

`COc1ccc(N[C@@H]2CCC[C@@H](OC(=O)N(C)C)C2)cc1`: the pIC50 in [17] was 3.96.

As to `Oc1ccccc1/C=C/c1cc(O)c(F)c(O)c1`, the pIC50 in [11] was 3.02; in [12], 5.00. Moreover, the Ratio IC50 in data set [9] was found to be 96.

On to `c1ccc2c(SCCCCCCCSc3c4c(nc5ccccc35)CCCC4)c3c(nc2c1)CCCC3`, for which the figures for the negative logarithm of the IC50 (pIC50) in data set [5] and in data set [6] were < 5.00 and 6.42, respectively.

Regarding `COc1ccccc1CN1CCN(Cc2ccc3cccnc3c2O)CC1`, the negative-log IC50 (pIC50) in [20] was 5.24. Besides, in [21], the inhibition came to 44.2%. Also, the viability at 24 h, 50 µM in [22] was 81%. In addition, the viability at 24 h, 10 µM in data set [23] is > 90%.

Values taken from ChEMBL document CHEMBL4024719, “Recent progress in the identification of selective butyrylcholinesterase inhibitors for Alzheimer's disease” (Eur J Med Chem, 2017).
